Experimental data reported in patent US12129509B2, “Apparatus, systems, and methods for determining the susceptibility of infectious agents to anti-infectives” (priority 2018, dated 2024).
Values after ≈ are worked out from the molar mass of the structure shown.

Experiments:
[1] = tested on: E. coli of an unknown strain; experiment: pH and ORP growth curves of E. coli with Ciprofloxacin in diagnostic device 102 (FIGS. 7A and 7B); type: cell-based
From the text: FIGS. 7A and 7B illustrate pH growth curves and ORP growth curves of E. coli in the presence of various concentrations of the antibiotic Ciprofloxacin, respectively. The growth curves were generated using a computing device 158 coupled to a parameter analyzer 156 coupled to the diagnostic device 102. Similar types of growth curves can also be generated using the computing device 158 coupled to the parameter analyzer 156 coupled to the diagnostic device 202.
An inoculum solution 110 comprising E. coli of an unknown strain (e.g., a positive blood culture (PBC) diluted to 5×10^5 colony-forming units (CFU)/mL of E. coli in Mueller Hinton (MH) broth) was introduced to the sample receiving space 112 of the diagnostic device 102. The inoculum solution 110 was allowed to fill the plurality wells 120 of the diagnostic device 102 including the growth control wells 134 and a number of active electrode wells 136. A water immiscible liquid 152 was then introduced into the sample receiving space 112 to seal the wells 120 and the entire diagnostic device 102 was incubated at an elevated temperature.
The computing device 158 generated the growth curves based on changes in the solution characteristics (e.g., changes in pH of the pH electrode wells 126 and changes in ORP of the ORP electrode wells 128) of the inoculum solution 110 within the growth control wells 134 and the various active electrode wells 136. The growth control wells 134 comprised at least one pH electrode well 126 and at least one ORP electrode well 128 devoid of the antibiotic. The active electrode wells 136 comprised dried Ciprofloxacin at concentrations of 2 μg/mL, 4 μg/mL, 8 μg/mL, 16 μg/mL, and 32 μg/mL.
This curve pattern or shape can be attributed to cellular activity undertaken by the active E. coli within the growth control wells 134. FIGS. 7A and 7B also illustrate that the three growth curves generated from measurements of the inoculum solution 110 within the active electrode wells 136 comprising 2 μg/mL and 4 μg/mL of Ciprofloxacin mimicked and followed the growth pattern of the inoculum solution 110 within the growth control wells 134.

[2] = tested on: E. coli of an unknown strain; experiment: pH growth curves of E. coli with Levofloxacin in diagnostic device 102 (FIG. 6); type: cell-based; settings: Escherichia coli, E. coli diluted in Mueller Hinton broth, wells with 1, 2 and 4 μg/mL, read-out: minimum inhibitory concentration (MIC)
From the text: FIG. 6 illustrates pH growth curves of E. coli in the presence of various concentrations of the antibiotic Levofloxacin. The growth curves were generated using a computing device 158 coupled to a parameter analyzer 156 coupled to the diagnostic device 102. Similar types of growth curves can also be generated using the computing device 158 coupled to the parameter analyzer 156 coupled to the diagnostic device 202. An inoculum solution 110 comprising E. coli of an unknown strain (diluted in Mueller Hinton (MH) broth) was introduced to the sample receiving space 112 of the diagnostic device 102. The inoculum solution 110 was allowed to fill the plurality wells 120 of the diagnostic device 102 including the growth control wells 134 and a number of active electrode wells 136. A water immiscible liquid 152 was then introduced into the sample receiving space 112 to seal the wells 120 and the entire diagnostic device 102 was incubated at an elevated temperature. The computing device 158 generated the growth curves based on a change in the pH of the inoculum solution 110 within a growth control well 134 and three active electrode wells 136. The growth control well 134 comprised a pH electrode 130 within the well and was devoid of the antibiotic. […]

MIC [2] [µg/mL]	Compound	susceptibility of the strain at the concentration ([1]; Ciprofloxacin 2 μg/mL and 4 μg/mL, curves followed growth control)	susceptibility of the strain at the concentration ([1]; Ciprofloxacin 8 μg/mL, delayed change in pH and ORP)	growth of E. coli in active electrode wells ([1]; Ciprofloxacin 16 μg/mL and 32 μg/mL, curves substantially flat lines)	susceptibility of the strain (overall) ([1]; based on MIC from pH and ORP growth curves)
	O=C(O)c1cn(C2CC2)c2cc(N3CCNCC3)c(F)cc2c1=O [Ciprofloxacin]	resistant or not susceptible	intermediate susceptibility	no noticeable growth	generally resistant
1 (≈ 2.77 µM)	C[C@H]1COc2c(N3CCN(C)CC3)c(F)cc3c(=O)c(C(=O)O)cn1c23 [Levofloxacin]				
